Values after ≈ are worked out from the molar mass of the structure shown. Where two headings read alike, the source gives them in different places.
Experiments:
AChE = settings: Figure 2; cited from earlier work
B. subtilis QB-928 = assay: Antibacterial assay, disc diffusion method (inhibition zone and MIC); assay type: cell-based; settings: for Inhibition Zone: disc diffusion; for Inhibition Zone / zone of inhibition at 25 µg/disc: 25 μg per disc, includes 5.6 mm disc diameter; for zone of inhibition at 25 µg/disc: QB928, disc diffusion
Method: (§1) The evaluation of in vitro antibacterial activity of synthesized compounds was performed against two bacterial strains, namely Gram +ve B. subtilis QB-928 and Gram −ve E. coli AB-274 using the disc diffusion method.
(§2) The antibacterial potential of all targeted compounds was evaluated using the disc diffusion method. A suspension of 100 μL containing 10^8 cfu/mL of bacteria was applied on nutrient agar media with the support of a sterilized loop. The compound solution was infused into sterilized filter paper discs (5.6 mm in diameter) at a particular concentration (25 μg/100 μL) in chloroform. The standard penicillin (25 μg per disc) was utilized as a positive control for antibacterial assay. These discs were carefully placed on agar which had originally been […] with selected bacterial cells. The agar culture plates were stored at 4 °C for 1 h and then the bacterial culture plate was incubated at 27 °C for 24 h. The inhibition zone was determined in millimeters (including the 5.6 mm disc diameter) with a reference control.

E. coli AB-274 = assay: as above; assay type: cell-based; settings: for Inhibition Zone / zone of inhibition at 25 µg/disc: disc diffusion, 25 μg per disc, includes 5.6 mm disc diameter
Method: as §1
as §2, with “The compound solution was infused into sterilized filter paper discs (5.6 mm in diameter) at a particular concentration (25 μg/100 μL) in chloroform.” left out, “The inhibition zone was determined in millimeters (including the 5.6 mm disc diameter) with a reference control.” left out

[1] = target: acetylcholinesterase (AChE) (Homo sapiens, UniProt P22303); assay: AChE inhibition assay (modified Ellman's method); assay type: biochemical; settings: for inhibition at 500 µM: 0.5 mM; for IC50: Ellman's method
Sequence of acetylcholinesterase (AChE) (P22303 32-614): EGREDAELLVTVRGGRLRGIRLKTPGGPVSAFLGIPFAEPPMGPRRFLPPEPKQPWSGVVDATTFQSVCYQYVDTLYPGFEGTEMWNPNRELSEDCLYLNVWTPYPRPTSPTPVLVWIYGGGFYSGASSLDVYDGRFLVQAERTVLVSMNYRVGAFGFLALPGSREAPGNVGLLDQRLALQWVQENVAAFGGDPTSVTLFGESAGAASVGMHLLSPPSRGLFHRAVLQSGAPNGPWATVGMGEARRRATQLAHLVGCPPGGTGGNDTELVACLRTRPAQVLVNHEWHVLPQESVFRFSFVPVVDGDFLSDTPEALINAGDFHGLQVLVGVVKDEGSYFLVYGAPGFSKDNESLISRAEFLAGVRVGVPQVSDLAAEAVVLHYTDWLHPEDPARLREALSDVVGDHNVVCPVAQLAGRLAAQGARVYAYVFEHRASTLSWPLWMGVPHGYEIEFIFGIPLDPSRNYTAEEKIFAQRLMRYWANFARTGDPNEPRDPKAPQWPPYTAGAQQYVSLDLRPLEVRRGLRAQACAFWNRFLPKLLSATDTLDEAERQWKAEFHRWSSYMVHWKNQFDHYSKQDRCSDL
Method: The inhibitory effects of all synthesized derivatives on AChE activities were measured using a modified Ellman’s method. This experimental study used DTNB (5,5′-dithio-bis(2-nitro-benzoic)acid) and AChI as the […]. The tested compounds (10 µL; […]) were mixed with AChE (50 µL; 38 U) solution and incubated for 10 min at 25 °C. DTNB (50 µL; 0.3 mM) was then added. The transfer of AChI (200 µL; 50 mM Tris/HCl buffer pH = 8) initiated the reaction. A spectrophotometer recorded the hydrolysis of AChI by the formation of yellow 5-thio-2-nitrobenzoate anions as a result of the reaction of DTNB with thiocholine at a wavelength of 412 nm. […] The given formula was used to calculate the (%) inhibition: Inhibition %=Control−Test/Control×100
IC50 values were calculated using data from GraphPad Prism 5 software.

[2] = Escherichia coli, AB274, E. coli
[3] = Bacillus subtilis, QB928, read-out: MIC
[4] = Escherichia coli, AB274, E. coli, read-out: MIC

Row | Compound | IC50 (AChE) [nM] | Inhibition Zone (B. subtilis QB-928) | Inhibition Zone (E. coli AB-274; E. coli) [mm] | zone of inhibition at 25 µg/disc (E. coli AB-274; [2]) [mm] | inhibition at 500 µM [1] [%] | IC50 [1] [nM] | zone of inhibition at 25 µg/disc (B. subtilis QB-928; Bacillus subtilis) [mm] | MIC (B. subtilis QB-928; [3]) [µg/mL] | MIC (E. coli AB-274; [4]) [µg/mL] | other results
1 | Cc1cc(C)cc(C[n+]2ccc(-c3cc4ccccc4o3)cc2)c1 [Compound 1a] | 4.1 ± 1.5 |  |  |  |  |  |  |  |  | 
2 | O=C(NCCCNc1c2c(nc3cc(Cl)ccc13)CCCC2)c1cc2ccccc2o1 [Compound 1b] | 120 |  |  |  |  |  |  |  |  | 
3 | COc1cccc2cc(C(=O)NCCCCNC(=O)c3cc4ccccc4o3)c(=O)oc12 [Compound 1c] | 180 ± 50 |  |  |  |  |  |  |  |  | 
4 | COc1cccc2cc(C(=O)NCCn3ccc(=O)c(OCc4ccccc4)c3C)oc12 [Compound 1d] | 76000 |  |  |  |  |  |  |  |  | 
5 | O=C(CSc1nnc(-c2cc3cc(Br)ccc3o2)n1-c1ccccc1)Nc1ccccc1 [Compound 10a, 2-((5-(5-bromobenzofuran-2-yl)-4-phenyl-4H-1,2,4-triazol-3-yl)thio)-N-phenylacetamide] |  | no detectable results | 38 ± 1.50 | 38 | 65.8 ± 1.5 | 880 ± 500 |  |  |  | MIC (E. coli AB-274; E. coli): 1.80 µg/mL (≈ 3.56 µM); MIC (E. coli AB-274; Escherichia coli, AB274): 1.8 ± 0.25 µg/mL (≈ 3.56 µM)
6 | Cc1ccc(NC(=O)CSc2nnc(-c3cc4cc(Br)ccc4o3)n2-c2ccccc2)cc1C [Compound 10b, 2-((5-(5-Bromobenzofuran-2-yl)-4-phenyl-4H-1,2,4-triazol-3-yl)thio)-N-(3,4-dimethylphenyl)acetamide] |  | 42 ± 1.00 mm | 11.5 ± 1.40 | 11.5 | 61.7 ± 1.5 | 1500 ± 1000 | 42 | 1.25 ± 0.6 (≈ 2.34 µM) | 3.8 ± 2.1 (≈ 7.12 µM) | MIC (B. subtilis QB-928): 1.25 µg/mL (≈ 2.34 µM)
7 | O=C(CSc1nnc(-c2cc3cc(Br)ccc3o2)n1-c1ccccc1)Nc1ccc([N+](=O)[O-])cc1 [Compound 10c, 2-((5-(5-Bromobenzofuran-2-yl)-4-phenyl-4H-1,2,4-triazol-3-yl)thio)-N-(4-nitrophenyl)acetamide] |  | no detectable results | 28 ± 0.00 | 28 | 55.9 ± 1.25 | 2280 ± 1750 |  |  | 2.5 ± 0.7 (≈ 4.54 µM) | 
8 | COc1ccc(OC)c(NC(=O)CSc2nnc(-c3cc4cc(Br)ccc4o3)n2-c2ccc(Cl)c(Cl)c2)c1 [Compound 10d, 2-((5-(5-Bromobenzofuran-2-yl)-4-(3,4-dichlorophenyl)-4H-1,2,4-triazol-3-yl)thio)-N-(2,5-dimethoxyphenyl)acetamide] |  | 11 ± 0.50 mm | 12 ± 0.65 | 12 | 81.45 ± 0.5 | 550 ± 1000 | 11 | 9.25 ± 1.25 (≈ 14.6 µM) | 16 ± 1 (≈ 25.2 µM) | 
9 | O=C(CSc1nnc(-c2cc3cc(Br)ccc3o2)n1-c1ccc(Cl)c(Cl)c1)Nc1ccc(Cl)c(Cl)c1 [Compound 10e, 2-((5-(5-Bromobenzofuran-2-yl)-4-(3,4-dichlorophenyl)-4H-1,2,4-triazol-3-yl)thio)-N-(3,4-dichlorophenyl)acetamide] |  | 8 ± 0.75 mm | 24 ± 0.50 | 24 | 51.2 ± 1.24 | 1980 ± 250 | 8 | 14 ± 1.8 (≈ 21.8 µM) | 2.5 ± 1.4 (≈ 3.89 µM) | 
10 | penicillin [reference compound] |  | 18 ± 0.50 mm | 24 ± 0.50 |  |  |  |  |  |  | MIC (B. subtilis QB-928): 1 ± 1.50 µg/mL; Inhibition Zone (B. subtilis QB-928; listed as penicillin): 18 mm; MIC (B. subtilis QB-928; listed as penicillin): 1 µg/mL; MIC (E. coli AB-274; E. coli): 2.4 ± 1.00 µg/mL
